According to US12162867B2, “Inhibitors of RNA helicase DHX9 and uses thereof” (ACCENT THERAPEUTICS, INC., priority 2022, dated 2024):
Where two headings read alike, the source gives them in different places.

System: circBRIP1 in HCT116 cells
Experiment: DHX9 circBRIP1 cellular target engagement SYBR Green assay (qPCR)
Assay type: cell-based
Conditions: Homo sapiens, HCT-116, circBRIP1, HCT116 cells, read-out: DHX9 Cellular Target Engagement EC50

Structure (SMILES) | EC50 (SyBr assay (marked ^+)) | EC50 (^+ SyBr assay was used)
CS(=O)(=O)Nc1cc(Cl)cc(NC(=O)c2cc3ccc(Cl)cn3c2)c1 [Example 299] | > 10000 nM | 
Cc1ccc2cc(C(=O)Nc3cc(Cl)cc(NS(C)(=O)=O)c3)cn2c1 [Example 300] | 3940 nM | 
CS(=O)(=O)Nc1cc(Cl)cc(NC(=O)c2cc3c(=O)[nH]ccn3c2)c1 [Example 301] | 2410 nM | 
CS(=O)(=O)Nc1cc(Cl)cc(NC(=O)c2cc3c(C(F)(F)F)cccn3c2)c1 [Example 302] | 1930 nM | 
COc1cccc2cc(C(=O)Nc3cc(Cl)cc(NS(C)(=O)=O)c3)sc12 [Example 303] | > 10000 nM | 
Cc1cccc2cc(C(=O)Nc3cc(Cl)cc(NS(C)(=O)=O)c3)cn12 [Example 304] | 5980 nM | 
CS(=O)(=O)Nc1cc(Cl)cc(NC(=O)c2cc3c(F)cccn3c2)c1 [Example 305] | 3330 nM | 
CN1CCC(n2cc(C(=O)Nc3cc(Cl)cc(NS(C)(=O)=O)c3)cn2)CC1=O (stereo not shown) [Example 307] | > 10000 nM | 
CS(=O)(=O)Nc1cc(Cl)cc(NC(=O)c2cnn(CCc3ccccc3)c2)c1 [Example 308] | > 10000 nM | 
CS(=O)(=O)Nc1cc(Cl)cc(NC(=O)c2cnn(C3CCCC3)c2)c1 [Example 309] | 3730 nM | 
CC(=O)NC1CC2(C1)CC(n1cc(C(=O)Nc3cc(Cl)cc(NS(C)(=O)=O)c3)cn1)C2 (stereo not shown) [Example 310] | > 10000 nM | 
CN1CC2(CC(n3cc(C(=O)Nc4cc(Cl)cc(NS(C)(=O)=O)c4)cn3)C2)C1 [Example 311] | 3980 nM | 
CS(=O)(=O)Nc1cc(Cl)cc(NC(=O)c2cnn(C3CC4(C3)CN(CC(F)(F)F)C4)c2)c1 [Example 312] | 9970 nM | 
CC(=O)N1CC2(CC(n3cc(C(=O)Nc4cc(Cl)cc(NS(C)(=O)=O)c4)cn3)C2)C1 [Example 313] | > 10000 nM | 
CC1(C)CC(n2cc(C(=O)Nc3cc(Cl)cc(NS(C)(=O)=O)c3)cn2)CCN1 (stereo not shown) [Example 315] | > 10000 nM | 
CS(=O)(=O)Nc1cc(Cl)cc(NC(=O)c2cnn(C3CCN(CC(F)(F)F)CC3)c2)c1 [Example 316] | 4920 nM | 
CC(=O)N1CCC(n2cc(C(=O)Nc3cc(Cl)cc(NS(C)(=O)=O)c3)cn2)CC1 [Example 317] | > 10000 nM | 
CS(=O)(=O)Nc1cc(Cl)cc(NC(=O)c2cnn(C3CC4(CC(N)C4)C3)c2)c1 (stereo not shown) [Example 319] | > 10000 nM | 
Cc1cc(C(=O)Nc2cc(Cl)cc(NS(C)(=O)=O)c2)cn1-c1ncc(N2CCOCC2)cc1F [Example 320] | 96.1 nM | 
COc1cccc2sc(C(=O)Nc3cc(Cl)cc(NS(C)(=O)=O)c3)cc12 [Example 321] | 241 nM | 
Cc1cn2cc(C(=O)Nc3cc(Cl)cc(NS(C)(=O)=O)c3)cc2c(C)n1 [Example 322] | > 10000 nM | 
CS(=O)(=O)Nc1cc(Cl)cc(NC(=O)c2cc3c(C(F)(F)F)cccc3s2)c1 [Example 323] | > 10000 nM | 
CS(=O)(=O)Nc1cc(Cl)cc(NC(=O)c2cc3c(F)c(F)ccc3s2)c1 [Example 324] | 5900 nM | 
CS(=O)(=O)Nc1cc(Cl)cc(NC(=O)c2cc3c(F)ccc(F)c3s2)c1 [Example 325] | 6090 nM | 
CS(=O)(=O)Nc1cc(Cl)cc(NC(=O)c2cc3cc(C(F)(F)F)ccc3s2)c1 [Example 326] | > 10000 nM | 
COc1ccc2cc(C(=O)Nc3cc(Cl)cc(NS(C)(=O)=O)c3)sc2c1 [Example 327] | 3540 nM | 

Structure (SMILES) | EC50 (SyBr assay (marked ^+)) | EC50 (^+ SyBr assay was used)
Cc1cc(C)c2cc(C(=O)Nc3cc(Cl)cc(NS(C)(=O)=O)c3)cn2c1 [Example 328] | 2670 nM | 
Cc1cccn2cc(C(=O)Nc3cc(Cl)cc(NS(C)(=O)=O)c3)cc12 [Example 329] | 4980 nM | 
CS(=O)(=O)Nc1cc(Cl)cc(NC(=O)c2cc3cnccn3c2)c1 [Example 330] | 4870 nM | 
Cc1ccc2sc(C(=O)Nc3cc(Cl)cc(NS(C)(=O)=O)c3)cc2c1 [Example 331] | 3750 nM | 
CS(=O)(=O)Nc1cc(Cl)cc(NC(=O)c2cc3c(Cl)cccc3s2)c1 [Example 332] | 3340 nM | 
Cc1cccnc1-c1cc(C(=O)Nc2cc(F)cc(NS(C)(=O)=O)c2)sc1C [Example 333] | 421 nM | 
Cc1cccnc1-c1csc(C(=O)Nc2cc(F)cc(NS(C)(=O)=O)c2)c1 [Example 334] | 251 nM | 
CS(=O)(=O)Nc1cc(Cl)cc(NC(=O)c2cc(-c3ncc(F)cn3)cs2)c1 [Example 338] | 126 nM | 
CCS(=O)(=O)Nc1cc(Cl)cc(NC(=O)c2cc(-c3ncc(F)cn3)cs2)c1 [Example 343] | 189 nM | 
CCS(=O)(=O)Nc1cc(Cl)cc(NC(=O)c2cc(-c3ncc(F)cn3)c(C)s2)c1 [Example 344] | 153 nM | 
CS(=O)(=O)Nc1cc(Cl)cc(NC(=O)c2cc(-c3ncccc3CC(=O)N3CCC3)cs2)c1 [Example 382] | 640 nM | 
CS(=O)(=O)Nc1cc(Cl)cc(NC(=O)c2cc(-c3ncccc3CC(=O)N3CCCC3)cs2)c1 [Example 383] | 557 nM | 
CS(=O)(=O)Nc1cc(Cl)cc(NC(=O)c2cc(-c3ncccc3Cc3ncccn3)cs2)c1 [Example 384] | 122 nM | 
Cc1sc(C(=O)Nc2cc(Cl)cc(NS(C)(=O)=O)c2)cc1-c1ncccc1CC(=O)N(C)C [Example 385] | 1330 nM | 
CS(=O)(=O)Nc1cc(Cl)cc(NC(=O)c2cnn(-c3ncccc3-c3cncnc3)c2)c1 [Example 387] | > 10000 nM | 
CS(=O)(=O)Nc1cc(Cl)cc(NC(=O)c2cnn(-c3cnc(N4CCOCC4)cn3)c2)c1 [Example 388] | 6530 nM | 
CS(=O)(=O)Nc1cc(Cl)cc(NC(=O)c2cnn(-c3ncccc3-c3cncc(F)c3)c2)c1 [Example 392] |  | 2800 nM
COc1cc(F)cnc1-n1cc(C(=O)Nc2cc(Cl)cc(NS(C)(=O)=O)c2)cc1C [Example 393] |  | 133 nM
CS(=O)(=O)Nc1cc(Cl)cc(NC(=O)c2cnn(-c3ncc(N4CCOCC4)cn3)c2)c1 [Example 394] |  | 4230 nM
Cc1cc(C(=O)Nc2cc(Cl)cc(NS(C)(=O)=O)c2)cn1-c1ncc(N2CCOCC2)cc1F [Example 412] |  | 96.1 nM
CS(=O)(=O)Nc1cc(Cl)cc(NC(=O)c2cnn(C3CCCC3OCc3ccccc3)c2)c1 (stereo not shown) [Example 424] |  | 4110 nM
Cc1cc(C(=O)Nc2cc(Cl)cc(NS(C)(=O)=O)c2)cn1-c1ccc(C#N)cn1 [Example 425] |  | 193 nM
Cc1cc(C(=O)Nc2cc(Cl)cc(NS(C)(=O)=O)c2)cn1-c1ncc(C(F)(F)F)cn1 [Example 426] |  | 226 nM
CS(=O)(=O)Nc1cc(Cl)cc(NC(=O)c2cnn(-c3ncccc3Oc3cccc(F)c3)c2)c1 [Example 427] |  | 305 nM
CS(=O)(=O)Nc1cc(Cl)cc(NC(=O)c2cnn(-c3ccccc3COc3cncc(F)c3)c2)c1 [Example 428] |  | 201 nM
CN1CCN(c2csc(C(=O)Nc3cc(Cl)cc(NS(C)(=O)=O)c3)c2)C1=O [Example 431] |  | 447 nM

Structure (SMILES) | EC50 (SyBr assay (marked ^+)) | EC50 (^+ SyBr assay was used)
CS(=O)(=O)Nc1cc(Cl)cc(NC(=O)c2cc(N3CCOC3=O)cs2)c1 [Example 433] |  | 1410 nM
Cc1sc(C(=O)Nc2cc(Cl)cc(NS(C)(=O)=O)c2)cc1N1CCCC1=O [Example 434] |  | 2320 nM
COc1cnn(-c2csc(C(=O)Nc3cc(Cl)cc(NS(C)(=O)=O)c3)c2)c1 [Example 435] |  | 1150 nM
Cc1sc(C(=O)Nc2cc(Cl)cc(NS(C)(=O)=O)c2)cc1-n1cc(F)cn1 [Example 439] |  | 199 nM
CS(=O)(=O)Nc1cc(Cl)cc(NC(=O)c2cc(-n3cc(F)cn3)cs2)c1 [Example 440] |  | 370 nM
CS(=O)(=O)Nc1cc(Cl)cc(NC(=O)c2cc(-c3ncc(F)cn3)c(C3CC3)s2)c1 [Example 448] |  | 2730 nM
CCS(=O)(=O)Nc1cc(Cl)cc(NC(=O)c2cc(-c3ncc(F)cn3)c(C3CC3)s2)c1 [Example 449] |  | 860 nM
CS(=O)(=O)Nc1cc(Cl)cc(NC(=O)c2cc(C3CC3)n(-c3ncc(F)cn3)c2)c1 [Example 451] |  | 1050 nM
Cn1cc(C(=O)Nc2cc(Cl)cc(NS(C)(=O)=O)c2)cc1-c1ccc(C(F)(F)F)cn1 [Example 569] |  | 146 nM
Cn1cc(C(=O)Nc2cc(Cl)cc(NS(C)(=O)=O)c2)cc1-c1ccc(C#N)cn1 [Example 570] |  | 224 nM
Cn1cc(C(=O)Nc2cc(Cl)cc(NS(C)(=O)=O)c2)cc1-c1ccc(F)cn1 [Example 575] |  | 215 nM
Cn1cc(C(=O)Nc2cc(Cl)cc(NS(C)(=O)=O)c2)cc1-c1ccc(Cl)cn1 [Example 576] |  | 128 nM
Cn1cc(C(=O)Nc2cc(Cl)cc(NS(C)(=O)=O)c2)cc1-c1ncc(Cl)cn1 [Example 577] |  | 153 nM
Cc1cc(C(=O)Nc2cc(Cl)cc(NS(C)(=O)=O)c2)cn1-c1ncc(Cl)cn1 [Example 578] |  | 491 nM
Cn1cc(C(=O)Nc2cc(Cl)cc(NS(C)(=O)=O)c2)cc1-c1ncc(F)cc1-c1cncc(F)c1 [Example 604, N-(3-chloro-5-methanesulfonamidophenyl)-5-{5,5′-difluoro-[3,3′-bipyridin]-2-yl}-1-methylpyrrole-3-carboxamide] |  | 160 nM
Cc1sc(C(=O)Nc2cc(Cl)cc(NS(C)(=O)=O)c2)cc1-c1ncc(F)cc1-c1ccn(C)c(=O)c1 [Example 605] |  | 5330 nM
Cc1sc(C(=O)Nc2cc(Cl)cc(NS(C)(=O)=O)c2)cc1-c1ncc(F)cc1-c1ccc(=O)n(C)c1 [Example 606] |  | 1510 nM
Cc1sc(C(=O)Nc2cc(Cl)cc(NS(C)(=O)=O)c2)cc1-c1ncc(F)cc1-c1cncc(F)c1 [Example 607] |  | 126 nM
Cc1ncccc1-c1cc(F)cnc1-c1cc(C(=O)Nc2cc(Cl)cc(NS(C)(=O)=O)c2)sc1C [Example 608] |  | 422 nM
CS(=O)(=O)Nc1cc(Cl)cc(NC(=O)c2cc(C(=O)N3CC4(CNC4)C3)n(-c3ccccn3)c2)c1 [Example 643] |  | > 10000 nM
CS(=O)(=O)Nc1cc(Cl)cc(NC(=O)c2cc(C(=O)N3CCCCC3)n(-c3ccccn3)c2)c1 [Example 644] |  | 8720 nM
CC(C)(C)OC(=O)N1CC(n2cc(C(=O)Nc3cc(Cl)cc(NS(C)(=O)=O)c3)cc2-c2ncc(F)cn2)C1 [Example 645] |  | 1260 nM
CS(=O)(=O)Nc1cc(Cl)cc(NC(=O)c2cc(C(=O)N3CCN(CC(F)(F)F)CC3)n(-c3ccccn3)c2)c1 [Example 649] |  | 9930 nM
CC(C)(O)c1cc(C(=O)Nc2cc(Cl)cc(NS(C)(=O)=O)c2)cn1-c1ccccn1 [Example 650] |  | 859 nM
